From paper PMC12463120, “Phenylalanine‐Based DNA‐Encoded Chemical Libraries for the Discovery of Potent and Selective Small Organic Ligands Against Markers of Cancer and Immune Cells” (Advanced Science, 2025)

Key:
human CAIX (hCAIX) = target: T1, human CAIX (hCAIX) (Homo sapiens, UniProt Q16790); test: Fluorescence polarization (FP) affinity against hCAIX; assay type: binding; conditions: fluorescein derivatives
T1 construct: made in house; host or cells: CHO cells
Description: Affinities of fluorescein‐bearing hits were determined by FP or ELISA measurements.
2.11 Fluorescence polarization (FP) measurements with fluoresceine-labelled
A dilution series of target proteins (i.e., PSMA, GCP3, CAIX, CAII) in the respective formulation buffer were separately prepared in a black 384-well plate (non-binding Greiner small volume plate). Test compounds functionalized with fluorescein were diluted to a concentration between 5 and 10 nM (5 μL) and incubated for 15 min with the protein (final volume corresponding to 10 µL). The fluorophore was excited at 485 nm, and anisotropy was measured at 535 nm on a Spectra Max Paradigm multimode plate reader (Tecan). The experiments were performed in triplicate. KD values measured using this FP method can differ from dissociation constants obtained by other physical methods (e.g., surface plasmon resonance, see section below).

hCAIX = target: T2, hCAIX (Homo sapiens, UniProt Q16790); test: Surface plasmon resonance (SPR) on hCAIX; assay type: binding; conditions: for Kd: 500 nM to 250 nM, CM5 chip
T2 construct: made in house; host or cells: CHO cells
Description: 2.14 Surface plasmon resonance (SPR)
SPR measurements were performed on a Biacore X100. Human recombinant ACP3 or CAIX were immobilized on a CM5 chip (Cytiva, #BR100012, both flow cells), reaching ~4000 RUs, using the EDC/NHS protocol provided by the manufacturer. The target protein immobilized on the reference flow cell was treated with denaturing solution (0.85% H3PO4, 10 mM NaOH, and 50 mM HCl). PBS (pH 7.4) was used as running buffer. Test compounds were injected at different concentrations in running buffer, according to a multicycle analysis with the following settings: 120 seconds contact time and 5´000 seconds (CAIX measurements) or 15´ 000 seconds (ACP3 measurements) dissociation time at a flow rate of 10 μL/min. Sensograms were plotted with GraphPad Prism (version 9, GraphPad Software) and fitted using the Biacore X100 Evaluation Software. […]
30 min at rt and washed with PBS (3 x 200 μL/well). The immobilized protein was incubated for 30 min in the dark with serial dilution of FITC-labelled compounds and washed with PBS (3 x 200 μL/well). A solution of rabbit polyclonal FITC antibody-horseradish peroxidase (anti-FITC-HRP, Abcam, #ab196968) 0.25 μg/mL in 2% milk-PBS was added to each well (100 μL/well) and incubated for additional 30 min in the dark at rt. Each well was washed with PBS 0.1% Tween (3 x 200 μL/ well) and with PBS (3 x 200 μL/ well). The substrate 3,3′,5,5′ -tetramethylbenzidine (TMB, Sigma Aldrich #T0440) was added (100 μL /well) and developed in the dark for 0.5-1 min. The reaction was stopped by adding 50 μL of an aqueous solution of H2SO4 1M. The absorbance was measured at 450 nm (reference level, 620–650 nm) with a Spark multimode microplate reader (Tecan Life Sciences). The experiments were […]

| Kd (human CAIX (hCAIX)) [nM] | association rate (kon) on hCAIX by SPR (hCAIX) | Kd (hCAIX) [nM] | dissociation rate (koff) on hCAIX by SPR (hCAIX) | Compound |
| --- | --- | --- | --- | --- |
| 2.46 | – | – | – | NS(=O)(=O)c1ccc(-c2cccc(C[C@H](NC(=O)CCC(=O)N[C@@H](CCCCNC(=S)Nc3ccc4c(c3)C(=O)OC43c4ccc(O)cc4Oc4cc(O)ccc43)C(=O)O)C(=O)NCC3(c4cccs4)CCOCC3)c2)cc1 [compound 20] |
| – | fast association rates | 50 | – | NS(=O)(=O)c1ccc(-c2cccc(C[C@@H](NC(=O)CCC(=O)N[C@@H](CCCCNC(=O)CC[C@H](C(=O)O)N3CCN(CC(=O)O)CCN(CC(=O)O)CCN(CC(=O)O)CC3)C(=O)O)C(=O)NCC3(c4cccs4)CCOCC3)c2)cc1 [compound 22] |
| 2.06 | – | – | – | NS(=O)(=O)c1nnc(Nc2cccc(C[C@H](NC(=O)CCC(=O)N[C@@H](CCCCNC(=S)Nc3ccc4c(c3)C(=O)OC43c4ccc(O)cc4Oc4cc(O)ccc43)C(=O)O)C(=O)NCC3(c4cccs4)CCOCC3)c2)s1 [compound 23] |
| – | fast association rates | 13 | slower dissociation rate | NS(=O)(=O)c1nnc(Nc2cccc(C[C@@H](NC(=O)CCC(=O)N[C@@H](CCCCNC(=O)CC[C@H](C(=O)O)N3CCN(CC(=O)O)CCN(CC(=O)O)CCN(CC(=O)O)CC3)C(=O)O)C(=O)NCC3(c4cccs4)CCOCC3)c2)s1 [compound 25] |
